In patent US11331271B2, “Buccal, sublingual and intranasal delivery of fospropofol” (The Johns Hopkins University, priority 2016, dated 2022):
Like-named read-outs stand apart in the source and are kept apart here.

Assays:
[1] = Pharmacokinetic studies in rats: fospropofol and propofol in plasma after IV, PO or ID fospropofol; conditions: for F of fospropofol (vs 5 mg/kg IV) / F of propofol (vs 5 mg/kg IV fospropofol): rats
Procedure: Male Sprague-Dawley rats (Charles River, Md., USA) weighing 200-250 g were used, unless otherwise noted. Animals were housed in groups of three-inch suspended polycarbonate cages (18-inches long, 9-inches wide and 9-inches high) under a 12-h light/dark cycle. Food (Harlan/Teklab) and water (filtered and delivered via an automatic watering system) were provided ad libitum. All procedures were conducted in compliance with the laws, regulations and guidelines of the National Institutes of Health (NIH/PHS) and with approval from the local Animal Care and Use committee.
For animal studies, a fospropofol dosing solution was made by dissolving powder in water (for oral and intra-duodenal administration) or saline (for intravenous administration) into an administration volume of 1 or 2 mL/kg, as noted.
Male Sprague-Dawley rats (225-250 g) underwent implantation with indwelling jugular vein catheters for plasma sampling. Animals receiving intravenous (IV) drug administration also underwent femoral vein catheterization and, after full recovery were attached to an electronic infusion pump and administered vehicle or various concentrations of fospropofol in 1 mL total volume by gradual constant rate infusion over 10 min. Intraduodenal (ID) administration was via previously implanted catheters (HILLTOP Labs, PA) in a constant volume of 2 mL/kg body weight, by slow infusion. Oral administration (PO) was performed via a curved bulb-tipped feeding gavage tube attached to a syringe inserted carefully through the oesophagus via the side of the mouth of manually restrained rats using an administration volume of 1 mL/kg. On the day of testing, control blood samples were taken from the jugular vein prior to dosing of test compounds in conscious rats. In these studies, intravenous doses were based on previously reported behavioral and pharmacokinetic studies with fospropofol. The PO and ID doses were established based on preliminary experiments with behavioral observation, using higher doses based on lower expected oral bioavailability.
After fospropofol administration, blood samples (0.5 mL) were taken at 5, 15, 30, 45, 60, 120, 240 and 360 min post dose. An equivalent volume of blood taken from donor rats of the same strain was administered after each blood sample withdrawal, in an effort to maintain blood volume as previously described (Skrajnar, et al., 2009; Moghaddam, et al., 2002; Choi, et al., 2007). Approximately 0.05 mL of 200 mg/mL of sodium orthovanadate (SOV) solution was added to the heparinized blood collection tubes prior to blood collection to prevent ex vivo conversion via alkaline phosphatases (ALP). The blood samples were mixed, cooled and subsequently centrifuged at 3,000 rpm and 4° C. for 10 min within 30 min of collection. Plasma samples were stored at −20° C. until analysis.
For fospropofol analysis, fospropofol-d6 (internal standard prepared in 1.0 M ammonium acetate buffer) was added to the plasma samples (rat or human: 0.05 mL) and subsequently extracted using a solid phase extraction (SPE). The SPE cartridges were conditioned by gravity with methanol and 1.0 M ammonium acetate solution in water. The plasma samples with internal standard were loaded on the cartridges, washed with water and 10% methanol/water and eluted with methanol. The tubes were then evaporated under nitrogen and the residues reconstituted with 50/50 methanol/25 mM ammonium acetate in deionized water. The sample extract was then injected onto a reversed phase HPLC Zorbax Eclipse XDB-C18 column. The separated analytes were detected using tandem mass spectrometry (MS/MS) detection.

[2] = Human Study 1: absolute bioavailability, plasma pharmacokinetics of fospropofol and propofol; type: in vivo; conditions: for Tmax / bioavailability / half-life: male, human, plasma; for half-life: read-out: mean t1/2 of fospropofol (converted)
Procedure: In human study 1, fospropofol disodium was formulated as a sterile aqueous solution at a concentration of 20 mg/mL. Each vial provided contained 20 mL of solution, suitable for intravenous injection. Fospropofol was administered as a single dose of 400 mg orally, directly into the duodenum by gastroscopy or intravenously over 10 min. In human study 2, fospropofol disodium in capsules (200 mg) or matching placebo was administered orally.
The first study was an absolute bioavailability study of fospropofol conducted at a single center (PRA Health Sciences) in Groningen, Netherlands, as a three-way crossover study. The study enrolled 7 healthy male volunteers between 18 and 45 years of age inclusive, with a body mass index between 18 and 28 kg/m^2. Subjects stayed in the clinical unit for three consecutive periods of 3 days each, with a 3-day washout, between periods. For six subjects, the order of the administration routes was as follows—period 1: PO, period 2: ID, and period 3: IV. For one subject the order of the administration routes was the following—period 1: ID, period 2: IV and period 3: PO. In this study a single dose of 400 mg was administered by each route. Blinding and placebo control was impractical due to the requirement of unsedated endoscopic administration of fospropofol into the duodenum. Safety and overall pharmacodynamic effect was evaluated based on adverse events, vital signs, electrocardiogram (ECG), Modified Observer's Assessment of Alertness/Sedation (OAA/S) score, clinical laboratory tests, and physical examination.
In the first study, 6 mL blood samples were collected following the PO and ID fospropofol treatment periods at times of pre-dose, 5, 10, 20, 30, 45, 60, 90 min and 2, 4, 6 and 9 h post-dose and in the IV fospropofol treatment period at pre-dose and at 5, 10, 15, 20, 30, 45, 60 and 120 min post-dose. In the second study a 6 mL blood sample was collected following each fospropofol PO dose (200, 600, 1,000 and 1,200 mg) at pre-dose, 5, 10, 20, 30, 45, 60, 90 min and 2, 4, 6 and 9 h post-dose. The blood was collected in a sodium heparin vacutainer tube containing 60 mg SOV, inverted approximately eight times to dissolve SOV and placed on dry ice until it was centrifuged at 3,000 rpm for 10 min at 4° C. to harvest plasma. Plasma samples were then stored at −20° C. until analysis.
The parameters were summarized using descriptive statistics.

[3] = Stability in rat plasma at −20° C.; type: in vitro ADME
Procedure: The SPE cartridges were conditioned by gravity with methanol and 1.0 M ammonium acetate solution in water. The plasma samples with internal standard were loaded on the cartridges, washed with water and 10% methanol/water and eluted with methanol. The tubes were then evaporated under nitrogen and the residues reconstituted with 50/50 methanol/25 mM ammonium acetate in deionized water. The sample extract was then injected onto a reversed phase HPLC Zorbax Eclipse XDB-C18 column. The separated analytes were detected using tandem mass spectrometry (MS/MS) detection. […] The assays were linear with correlation coefficient of (R^2)>0.99 over the range of 10-2,000 ng/mL for rat plasma and 5-1,000 ng/mL for human plasma.
In brief, 4-[tert-octyl] phenol, (internal standard) was added to the plasma samples (0.05 mL for rat or 0.2 mL for human) and extracted using a 3M Empore C-18-SD 4 mm SPE cartridge (Millipore, Billerica, Mass., USA). […] The final eluants (˜0.3 mL) were diluted with 0.3 mL of water, and injected onto an HPLC system equipped with a C-18 analytical column (5 μm, 150×3.9 mm) and fluorescence detector set at excitation and emission wave lengths of 275 and 310 nm, respectively. […] All rat and human study samples in this study were analyzed without exceeding the stability sample integrity during validation of the methods.

[4] = Intranasal delivery of fospropofol in monkeys: plasma and CSF levels; type: in vivo, monkey
Procedure: More particularly, in this example, monkeys were dosed with 50 mg fospropofol by intranasal administration. Plasma and cerebrospinal fluid (CSF) were collected before treatment (graphed as t=0), 15 minutes, 30 minutes, 1 hr, and 2 hr. Samples were analyzed for propofol and fospropofol by LC/MS. […] These samples are near the limit of quantification. FIGS. 11A and 11B show the data in nM and ng/mL scales, respectively.

[5] = male, Sprague-Dawley, rat, plasma, 30 mg/kg
[6] = male, Sprague-Dawley, rat, plasma, 100 mg/kg
[7] = male, Sprague-Dawley, rat, plasma, iv, 5 mg/kg
[8] = male, Sprague-Dawley, rat, plasma, po, 20 mg/kg
[9] = male, Sprague-Dawley, rat, plasma, po, 100 mg/kg

CC(C)c1cccc(C(C)C)c1OCOP(=O)(O)O [fospropofol]
AUC(0-inf) [1, 5]: 50 ng·h/mL
AUC(0-t) [1, 5]: 44 ng·h/mL
Cmax [1, 5]: 170 ng/mL
half-life [1, 5]: 12.6 min
AUC(0-inf) [1, 6]: 650 ng·h/mL
AUC(0-t) [1, 6]: 644 ng·h/mL
Cmax [1, 6]: 3740 ng/mL
half-life [1, 6]: 13.8 min
AUC(0-inf) [1, 7]: 3150 ng·h/mL
AUC(0-t) [1, 7]: 3150 ng·h/mL
Cmax [1, 7]: 16300 ng/mL
Vd [1, 7]: 1.02 L/kg
clearance [1, 7]: 23 mL/min/kg
half-life [1, 7]: 29.4 min
AUC(0-inf) [1, 8]: 60 ng·h/mL
AUC(0-t) [1, 8]: 50 ng·h/mL
Cmax [1, 8]: 230 ng/mL
half-life [1, 8]: 11.4 min
AUC(0-inf) [1, 9]: 2180 ng·h/mL
AUC(0-t) [1, 9]: 2160 ng·h/mL
Cmax [1, 9]: 9230 ng/mL
half-life [1, 9]: 29.4 min
F of fospropofol (vs 5 mg/kg IV) ([1]; fospropofol 20 mg/kg PO): 0.448%
F of fospropofol (vs 5 mg/kg IV) ([1]; fospropofol 30 mg/kg ID): 0.264%
F of fospropofol (vs 5 mg/kg IV) ([1]; fospropofol 100 mg/kg ID): 1.03%
F of fospropofol (vs 5 mg/kg IV) ([1]; fospropofol 100 mg/kg PO): 3.46%
fospropofol Cmax, fold lower than IV ([2]; 400 mg ID vs IV): ~534 fold
plasma fospropofol by non-intravenous routes ([2]; 400 mg PO or ID): Almost no plasma fospropofol was detected
fospropofol Cmax, fold lower than IV ([2]; 400 mg PO vs IV): approximately 88 fold
Tmax ([2]; other: intraduodenal, 400 mg ID, read-out: Tmax of fospropofol): 10.2 min
bioavailability ([2]; other: intraduodenal, 400 mg ID, read-out: absolute bioavailability of fospropofol): 0.1%
half-life ([2]; other: intraduodenal, 400 mg ID): 16.8 min
half-life ([2]; 400 mg IV): 16.8 min
Tmax ([2]; 400 mg PO, read-out: Tmax of fospropofol): 4.8 min
bioavailability ([2]; 400 mg PO, read-out: absolute bioavailability of fospropofol): 1%
half-life ([2]; 400 mg PO): 19.2 min
time stable at −20° C. in rat plasma [3]: 98 days
fospropofol (prodrug) in plasma after intranasal administration ([4]; 50 mg intranasal): appreciable plasma concentrations of prodrug
fospropofol in CSF samples ([4]; 50 mg intranasal, only two samples): low nanomolar range

CC(C)c1cccc(C(C)C)c1O [propofol, 2,6-diisopropylphenol]
bioavailability ([1]; male, Sprague-Dawley, rat, plasma): ~100%
bioavailability ([1]; male, Sprague-Dawley, rat, plasma, po): 20 to 70%
bioavailability [1, 9]: ≥ 70%
F of propofol (vs 5 mg/kg IV fospropofol) ([1]; fospropofol 20 mg/kg PO): 22.7%
F of propofol (vs 5 mg/kg IV fospropofol) ([1]; fospropofol 30 mg/kg ID): 47.3%
F of propofol (vs 5 mg/kg IV fospropofol) ([1]; fospropofol 100 mg/kg ID): 141%
F of propofol (vs 5 mg/kg IV fospropofol) ([1]; fospropofol 100 mg/kg PO): 70.5%
bioavailability (F) of propofol based on AUC(0-∞) ([2]; fospropofol 400 mg ID): 37%
bioavailability (F) of propofol based on AUC(0-∞) ([2]; fospropofol 400 mg oral): 30%
Tmax ([2]; other: intraduodenal, fospropofol 400 mg ID): 10.2 min
bioavailability ([2]; po, 400 mg, summary in discussion): ≥ 30%
Tmax ([2]; fospropofol 400 mg PO): 19.8 min
time stable at −20° C. in rat plasma [3]: 65 days
propofol in plasma samples ([4]; 50 mg fospropofol intranasal, up to 2 hr): not quantifiable
